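Tested at 5 concentrations; 48 h exposure; 96-well plates; endpoints linearly interpolated, else capped at highest concentration. GI50 = concentration required for 50% inhibition of growth.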 Active and inactive are the calls of the source. No stated cut-off is given here; in the data, active = GI50 up to about 1.1 µM and inactive = higher.
Experiments:
Experiment in all cases: growth of human tumour cells (NCI), 48 h
SR = system: SR
SK-OV-3 = system: SK-OV-3
Malme-3M = system: Malme-3M
UACC-62 = system: UACC-62
MDA-MB-435 = system: MDA-MB-435
SK-MEL-28 = system: SK-MEL-28
NCI/ADR-RES = system: NCI/ADR-RES
SK-MEL-5 = system: SK-MEL-5
HCT-15 = system: HCT-15
786-0 = system: 786-0
NCI-H226 = system: NCI-H226
SK-MEL-2 = system: SK-MEL-2
RXF 393 = system: RXF 393
MDA-N = system: MDA-N
SNB-75 = system: SNB-75
CAKI-1 = system: CAKI-1
KM12 = system: KM12
DU-145 = system: DU-145
HCC 2998 = system: HCC 2998
HOP-92 = system: HOP-92

Compound | GI50 (SR) | GI50 (SK-OV-3) | GI50 (Malme-3M) | GI50 (UACC-62) | GI50 (MDA-MB-435) | GI50 (SK-MEL-28) | GI50 (NCI/ADR-RES) | GI50 (SK-MEL-5) | GI50 (HCT-15) [µM] | GI50 (786-0) | GI50 (NCI-H226) | GI50 (SK-MEL-2) | GI50 (RXF 393) | GI50 (MDA-N) | GI50 (SNB-75) | GI50 (CAKI-1) | GI50 (KM12) | GI50 (DU-145) | GI50 (HCC 2998) | GI50 (HOP-92)
Cc1c(/C=N/NC(=S)Nc2ccccc2Cl)c(=O)n(-c2ccccc2)n1C | 43.8 µM (inactive) | 31 µM (inactive) | 32.7 µM (inactive) | 31 µM (inactive) | > 100 µM (inactive) | 58.6 µM (inactive) | 20.2 µM (inactive) | 32.7 µM (inactive) | 8.53 | 19.9 µM (inactive) | 68.5 µM (inactive) | > 100 µM (inactive) | 16.1 µM (inactive) | 87.3 µM (inactive) | 25.9 µM (inactive) | 19.7 µM (inactive) | 29.3 µM (inactive) | 60.4 µM (inactive) | – | –
CCCc1cc(=O)oc2c3c(c4c(c12)OC(C)(C)CC4)O[C@H](C)[C@@H](C)[C@H]3O | – | 17.5 µM (inactive) | 21.9 µM (inactive) | 14.1 µM (inactive) | 11.5 µM (inactive) | – | 11.2 µM (inactive) | 15.1 µM (inactive) | 13.4 | 15.7 µM (inactive) | 15.6 µM (inactive) | 24.7 µM (inactive) | 21.3 µM (inactive) | 5.56 µM (inactive) | 16.4 µM (inactive) | 20.5 µM (inactive) | 12.8 µM (inactive) | 16.1 µM (inactive) | 16.6 µM (inactive) | 18.3 µM (inactive)
CC1CC[C@@]2(OC1)OC1CC3C4CCC5C[C@@H](OC6OC(CO)C(OC7OC(CO)C(O)C(OC8OC(CO)C(O)C(OC9OC(CO)C(O)C(O)C9O)C8O)C7OC7OC(CO)C(O)C(O)C7O)C(O)C6O)[C@H](O)C[C@]5(C)C4CC[C@]3(C)C1[C@@H]2C (stereo partly drawn) | – | > 80.5 µM (inactive) | > 80.5 µM (inactive) | > 80.5 µM (inactive) | > 80.5 µM (inactive) | > 80.5 µM (inactive) | > 80.5 µM (inactive) | > 80.5 µM (inactive) | > 80.5 | > 80.5 µM (inactive) | > 80.5 µM (inactive) | – | > 80.5 µM (inactive) | > 80.5 µM (inactive) | > 80.5 µM (inactive) | > 80.5 µM (inactive) | > 80.5 µM (inactive) | > 80.5 µM (inactive) | > 80.5 µM (inactive) | > 80.5 µM (inactive)
O=C(CC(C(=O)c1ccc(F)cc1)c1ccsc1)c1cccs1 (stereo not drawn) | 39.4 µM (inactive) | > 100 µM (inactive) | 36 µM (inactive) | > 100 µM (inactive) | > 100 µM (inactive) | > 100 µM (inactive) | 96.4 µM (inactive) | 62.4 µM (inactive) | 86.9 | > 100 µM (inactive) | 58.1 µM (inactive) | > 100 µM (inactive) | – | 79.8 µM (inactive) | 94 µM (inactive) | > 100 µM (inactive) | 44.8 µM (inactive) | > 100 µM (inactive) | > 100 µM (inactive) | –
Cc1nc(C)c(N2CCN(C(=O)O)CC2)c(O)n1 | > 100 µM (inactive) | > 100 µM (inactive) | > 100 µM (inactive) | > 100 µM (inactive) | > 100 µM (inactive) | > 100 µM (inactive) | > 100 µM (inactive) | > 100 µM (inactive) | > 100 | > 100 µM (inactive) | > 100 µM (inactive) | – | > 100 µM (inactive) | > 100 µM (inactive) | – | 1.39 µM (inactive) | > 100 µM (inactive) | > 100 µM (inactive) | > 100 µM (inactive) | > 100 µM (inactive)
Cc1cccc2c1C(=O)/C(=C/c1ccccc1C(=O)O)C2 | – | – | > 100 µM (inactive) | > 100 µM (inactive) | > 100 µM (inactive) | > 100 µM (inactive) | > 100 µM (inactive) | 37.5 µM (inactive) | > 100 | > 100 µM (inactive) | 98.4 µM (inactive) | > 100 µM (inactive) | > 100 µM (inactive) | > 100 µM (inactive) | 85.3 µM (inactive) | > 100 µM (inactive) | > 100 µM (inactive) | > 100 µM (inactive) | > 100 µM (inactive) | > 100 µM (inactive)
COc1cccc(C23CCN(C)C(CC(O)C2)C3)c1OC (stereo not drawn) | > 100 µM (inactive) | > 100 µM (inactive) | > 100 µM (inactive) | > 100 µM (inactive) | > 100 µM (inactive) | > 100 µM (inactive) | > 100 µM (inactive) | > 100 µM (inactive) | > 100 | > 100 µM (inactive) | > 100 µM (inactive) | > 100 µM (inactive) | – | > 100 µM (inactive) | – | > 100 µM (inactive) | > 100 µM (inactive) | > 100 µM (inactive) | – | > 100 µM (inactive)
COc1cc(C)c(C2NC(=O)c3ccccc3N2)cc1C (stereo not drawn) | 0.0364 µM (active) | 0.378 µM (active) | 0.183 µM (active) | 0.201 µM (active) | 0.0294 µM (active) | 0.59 µM (active) | 0.149 µM (active) | 0.135 µM (active) | 0.217 | 0.417 µM (active) | 0.652 µM (active) | 0.297 µM (active) | 0.358 µM (active) | 0.0283 µM (active) | 0.0543 µM (active) | 0.252 µM (active) | 0.15 µM (active) | 0.4 µM (active) | 1.33 µM (inactive) | –
[N-]=[N+]=C1CNC(=O)NC1=O | – | > 100 µM (inactive) | > 100 µM (inactive) | > 100 µM (inactive) | 95.7 µM (inactive) | > 100 µM (inactive) | > 100 µM (inactive) | > 100 µM (inactive) | > 100 | 60.4 µM (inactive) | > 100 µM (inactive) | > 100 µM (inactive) | > 100 µM (inactive) | > 100 µM (inactive) | 13.5 µM (inactive) | > 100 µM (inactive) | > 100 µM (inactive) | > 100 µM (inactive) | > 100 µM (inactive) | > 100 µM (inactive)
COC(=O)C(C)Sc1nc2cc(Cl)ccc2s1 (stereo not drawn) | – | > 100 µM (inactive) | > 100 µM (inactive) | > 100 µM (inactive) | > 100 µM (inactive) | > 100 µM (inactive) | > 100 µM (inactive) | > 100 µM (inactive) | > 100 | > 100 µM (inactive) | > 100 µM (inactive) | – | > 100 µM (inactive) | > 100 µM (inactive) | > 100 µM (inactive) | > 100 µM (inactive) | > 100 µM (inactive) | > 100 µM (inactive) | > 100 µM (inactive) | > 100 µM (inactive)
CN(C)c1ccc(/C=C2\N=C(N/N=C/c3ccccc3)NC2=O)cc1 | – | > 100 µM (inactive) | 69.5 µM (inactive) | 79.8 µM (inactive) | 33 µM (inactive) | > 100 µM (inactive) | 29.1 µM (inactive) | 41.1 µM (inactive) | 33.4 | 44.2 µM (inactive) | > 100 µM (inactive) | > 100 µM (inactive) | 20.2 µM (inactive) | 33.4 µM (inactive) | 81.1 µM (inactive) | > 100 µM (inactive) | 52.6 µM (inactive) | 58.7 µM (inactive) | 42.1 µM (inactive) | 26.4 µM (inactive)
Cc1cccc(/C=N/NC(=S)NC(C)(C)C)n1 | 23.7 µM (inactive) | > 100 µM (inactive) | > 100 µM (inactive) | 66.4 µM (inactive) | > 100 µM (inactive) | > 100 µM (inactive) | 33.7 µM (inactive) | 56.1 µM (inactive) | 24.8 | 76.9 µM (inactive) | 52.4 µM (inactive) | > 100 µM (inactive) | – | > 100 µM (inactive) | > 100 µM (inactive) | > 100 µM (inactive) | > 100 µM (inactive) | 66.8 µM (inactive) | 56.1 µM (inactive) | –
NC(CCC(=O)O)C(=O)N1CCN(c2nc(N3CCCC3)c3nc(Cl)c(NCc4ccccc4)nc3n2)CC1 (stereo not drawn) | 3.68 µM (inactive) | 18 µM (inactive) | 17.3 µM (inactive) | 11.2 µM (inactive) | 9.48 µM (inactive) | 9.48 µM (inactive) | 20.8 µM (inactive) | 8.04 µM (inactive) | 14 | 12.1 µM (inactive) | 12.3 µM (inactive) | 15.6 µM (inactive) | – | 10.1 µM (inactive) | 12 µM (inactive) | 17.8 µM (inactive) | 16.1 µM (inactive) | 8.43 µM (inactive) | 11.4 µM (inactive) | 15.8 µM (inactive)
O=C(O)CC1OCC=C2C[N+]3([O-])CCC45c6ccccc6NC4C1C2CC53 (stereo not drawn) | > 100 µM (inactive) | > 100 µM (inactive) | > 100 µM (inactive) | > 100 µM (inactive) | > 100 µM (inactive) | > 100 µM (inactive) | > 100 µM (inactive) | > 100 µM (inactive) | > 100 | > 100 µM (inactive) | > 100 µM (inactive) | 17.7 µM (inactive) | > 100 µM (inactive) | > 100 µM (inactive) | – | > 100 µM (inactive) | > 100 µM (inactive) | > 100 µM (inactive) | – | > 100 µM (inactive)
Cc1ccc(-c2cc(-c3ccccc3)nc(N)n2)c(O)c1 | 0.227 µM (active) | > 75.7 µM (inactive) | > 100 µM (inactive) | > 78.2 µM (inactive) | 2.86 µM (inactive) | > 100 µM (inactive) | > 100 µM (inactive) | 6.46 µM (inactive) | > 22.9 | > 58.1 µM (inactive) | – | > 28.9 µM (inactive) | > 100 µM (inactive) | 4.78 µM (inactive) | – | > 74.6 µM (inactive) | 7.46 µM (inactive) | > 79.4 µM (inactive) | > 100 µM (inactive) | > 64.1 µM (inactive)
